Results from article PMC12656546, “Enterohepatic Recirculation-Mediated Reabsorption of Aristolochic Acid I: Revealed by Toxicokinetics and Metabolite Identification in Rats” (Toxics, 2025).
Several values for one entry are separate records, joined by “and”; a condition that tells them apart may be missing. Equal entries are not always repeated.

Assay: Toxicokinetic study of AAI after single oral administration (plasma, UPLC-QQQ-MS/MS, NCA)
Type: in vivo, F344 rats
Conditions: for Vd / t1/2 / tmax / AUC0→t / CL/F / Cmax: individual pooled profiles (animal pairs), Table S4
Procedure: For toxicokinetic study, forty-eight […] F344 rats (specific pathogen-free grade) were enrolled in the study, with equal numbers of males and females. All rats were purchased from Charles River Laboratory (Raleigh, NC, USA). All rats were confirmed to be healthy based on a series of physical health examinations. Rats were acclimated for 5 days at a temperature of 20–26 °C, humidity of 40–70% and a 12 h light/dark circle. The rats were randomly divided into four groups (n = 12 per group), with equal numbers of males and females in each group. The allocation was performed separately for each sex (female and male) based on body weight using a stratified randomization method. During the experiment, rats were fasted and had access to water ad libitum. To minimize confounding factors, treatments and measurements were randomized within each session. Cages from different groups were evenly distributed across racks in the same room to reduce bias from light and temperature. This study was approved by the Institutional Animal Care and Use Committee (IACUC) of the National Drug Safety Evaluation Center (Approval No. IACUC-2024-K011, 20 September 2024).
During the experiment, each rat received a single oral administration via gastric gavage. Rats in the control group were administered with 0.5% sodium carboxymethyl cellulose (CMC-Na) suspension. For the treatment groups, rats were administered with gavage solution containing 10, 30 and 100 mg/kg of AAI. The gavage solution was prepared by uniformly dispersing the reference standard of AAI in the 0.5% CMC-Na solution. After oral administration, blood samples were collected from the postorbital vein plex of rats and immediately placed in EDTA tubes. To capture potential reabsorption which might occur long after AAI administration, 15 blood sampling time points were established for each dose group. A sparse sampling approach was employed to avoid excessive blood loss in each rat. For each dosage, 12 rats were subdivided into two groups. For the first group, blood samples were collected from 6 rats at 10, 30, 60, 90, 120, 240, 420, and 600 min after AAI administration; for the second group, blood samples were collected from these 6 rats at 12, 14, 16, 18, 20, 22, and 24 h after AAI administration. Therefore, the experimental design ensured that six biological replicates were obtained for each sampling time point, enabling robust toxicokinetic analysis.
Rat plasma samples were prepared as follows: Blood was centrifuged at 13,200 rpm for 10 min. Then, 25 μL of retrieved plasma was transferred to 2 mL centrifuge tubes, followed by the addition of 75 μL of methanol/acetonitrile solution (v/v, 1∶1) containing indomethacin as internal standard (IS). After vortexing for 2 min and centrifugation for 10 min at 13,200 rpm, the supernatant was used as study samples for quantitative analysis. Quality control samples (QCs) and calibration standards were prepared by spiking blank plasma with different concentrations of AAI standard solution. The QCs and calibration standards were processed using identical procedures as the study samples.
A method of ultra-performance liquid chromatography coupled with triple quadrupole tandem mass spectrometry (UPLC-QQQ-MS/MS) was developed to achieve the quantitation of AAI in rat plasma. The LC-MS/MS analysis was performed using an Acquity UPLC I-Class system coupled with an Xevo TQ XS spectrometer (Waters, Milford, MA, USA). An Acquity UPLC BEH C18 column (2.1 mm × 50 mm, 1.7 μm, Waters, Milford, MA, USA) was employed for chromatographic separation. The mobile phases consisted of water containing 5 mmol/L ammonium formate/0.1% formic acid (A) and acetonitrile (B). The gradient elution was set as follows: 1–4 min, 10–90% B; 4–5 min, 90% B; 5–5.01 min, 90–10% B; 5.01–7 min, 10% B. The flow rate was set at 0.4 mL/min. The column temperature was maintained at 40 °C. A sample volume of 2 μL was injected for analysis. […]

[1] = high-dose (100 mg/kg), 100 mg/kg
[2] = medium-dose (30 mg/kg), 30 mg/kg
[3] = oral dose from 30 mg/kg to 100 mg/kg (3.33-fold)

In the case of `COc1cccc2c1cc([N+](=O)[O-])c1c(C(=O)O)cc3c(c12)OCO3` [AAI, Aristolochic acid I], the Vd [1] is reported as 23.01 L and 3.33 L and 1.48 L and 11.28 L and 7.23 L and 4.20 L, the t1/2 [1] is reported as 20.86 h and 3.11 h and 2.58 h and 3.83 h and 2.80 h and 2.72 h and the tmax [1] is reported as 1.00 h. For the same molecule, the “sex-dependent difference in systemic exposure” value (high-dose and medium-dose groups, female vs male rats) was “female rats exhibited higher systemic exposure compared to males”, the AAI plasma concentration (low-dose (10 mg/kg oral), 18 h, individual rats M104,M105,M106,F104,F105,F106, below LLOQ set to zero) was 0.00 ng/mL and the AAI plasma concentration (low-dose (10 mg/kg oral), 20 h, individual rats M104,M105,M106,F104,F105,F106, below LLOQ set to zero) was 0.00 ng/mL. The AAI plasma concentration (low-dose (10 mg/kg oral), 22 h, individual rats M104,M105,M106,F104,F105,F106, below LLOQ set to zero) was 0.00 ng/mL, the AAI plasma concentration (low-dose (10 mg/kg oral), 24 h, individual rats M104,M105,M106,F104,F105,F106, below LLOQ set to zero) was 0.00 ng/mL and the AUC0→t (low-dose (10 mg/kg), 10 mg/kg) was 1221.57 ng·h/mL and 1055.94 ng·h/mL and 876.13 ng·h/mL and 990.96 ng·h/mL. The CL/F (low-dose (10 mg/kg), 10 mg/kg) was 1.53 L/h and 1.06 L/h and 1.82 L/h and 1.98 L/h and 1.38 L/h and 2.17 L/h, the Cmax (low-dose (10 mg/kg), 10 mg/kg) was 361.73 ng/mL and 436.18 ng/mL and 640.11 ng/mL and 496.76 ng/mL and 247.55 ng/mL and the Vd (low-dose (10 mg/kg), 10 mg/kg) was 2.67 L and 1.53 L and 3.03 L and 4.74 L and 1.21 L and 6.96 L. The t1/2 (low-dose (10 mg/kg), 10 mg/kg) was 1.00 h and 1.15 h and 1.66 h and 0.61 h and 1.21 h and 2.23 h, the tmax (low-dose (10 mg/kg), 10 mg/kg) was 0.17 h and the AAI plasma concentration (medium-dose (30 mg/kg oral), 0.167 h, individual rats M201,M202,M203,F201,F202,F203, 30 mg/kg) was 677.97 ng/mL and 891.85 ng/mL and 775.45 ng/mL and 694.87 ng/mL and 747.04 ng/mL and 424.53 ng/mL. The AAI plasma concentration (medium-dose (30 mg/kg oral), 0.5 h, individual rats M201,M202,M203,F201,F202,F203, 30 mg/kg) was 2114.14 ng/mL and 2496.11 ng/mL and 2604.27 ng/mL and 3133.29 ng/mL and 2919.69 ng/mL and 1424.98 ng/mL, the AAI plasma concentration (medium-dose (30 mg/kg oral), 1 h, individual rats M201,M202,M203,F201,F202,F203, 30 mg/kg) was 1312.37 ng/mL and 2360.84 ng/mL and 2630.67 ng/mL and 814.02 ng/mL and 1128.36 ng/mL and 777.08 ng/mL and the AAI plasma concentration (medium-dose (30 mg/kg oral), 1.5 h, individual rats M201,M202,M203,F201,F202,F203, 30 mg/kg) was 508.51 ng/mL and 594.78 ng/mL and 649.03 ng/mL and 685.24 ng/mL and 712.70 ng/mL. For the same molecule, the AAI plasma concentration (medium-dose (30 mg/kg oral), 2 h, individual rats M201,M202,M203,F201,F202,F203, 30 mg/kg) was 634.01 ng/mL and 354.12 ng/mL and 602.07 ng/mL and 438.37 ng/mL and 724.22 ng/mL and 539.10 ng/mL, the AAI plasma concentration (medium-dose (30 mg/kg oral), 4 h, individual rats M201,M202,M203,F201,F202,F203, 30 mg/kg) was 90.61 ng/mL and 161.84 ng/mL and 196.08 ng/mL and 93.85 ng/mL and 264.87 ng/mL and 468.11 ng/mL and the AAI plasma concentration (medium-dose (30 mg/kg oral), 7 h, individual rats M201,M202,M203,F201,F202,F203, 30 mg/kg) was 72.74 ng/mL and 83.75 ng/mL and 104.71 ng/mL and 69.29 ng/mL and 131.52 ng/mL and 64.74 ng/mL. The AAI plasma concentration (medium-dose (30 mg/kg oral), 10 h, individual rats M201,M202,M203,F201,F202,F203, 30 mg/kg) was 26.96 ng/mL and 52.18 ng/mL and 50.62 ng/mL and 70.78 ng/mL and 76.59 ng/mL and 58.20 ng/mL, the AAI plasma concentration (medium-dose (30 mg/kg oral), 12 h, individual rats M204,M205,M206,F204,F205,F206, 30 mg/kg) was 1.92 ng/mL and 6.45 ng/mL and 1.24 ng/mL and 2.81 ng/mL and 3.93 ng/mL and 3.49 ng/mL and the AAI plasma concentration (medium-dose (30 mg/kg oral), 14 h, individual rats M204,M205,M206,F204,F205,F206, 30 mg/kg) was 2.74 ng/mL and 3.87 ng/mL and 2.17 ng/mL and 2.87 ng/mL. For the same molecule, the AAI plasma concentration (medium-dose (30 mg/kg oral), 16 h, individual rats M204,M205,M206,F204,F205,F206, 30 mg/kg) was 0.61 ng/mL and 2.32 ng/mL and 0.38 ng/mL and 4.36 ng/mL and 5.23 ng/mL and 10.35 ng/mL, the AAI plasma concentration (medium-dose (30 mg/kg oral), 18 h, individual rats M204,M205,M206,F204,F205,F206, 30 mg/kg) was 0.83 ng/mL and 5.49 ng/mL and 0.29 ng/mL and 6.28 ng/mL and 4.31 ng/mL and 13.62 ng/mL and the AAI plasma concentration (medium-dose (30 mg/kg oral), 20 h, individual rats M204,M205,M206,F204,F205,F206, 30 mg/kg) was 0.91 ng/mL and 3.14 ng/mL and 0.30 ng/mL and 7.63 ng/mL and 13.88 ng/mL and 9.00 ng/mL. For the same molecule, the AAI plasma concentration (medium-dose (30 mg/kg oral), 22 h, individual rats M204,M205,M206,F204,F205,F206, 30 mg/kg) was 0.40 ng/mL and 4.38 ng/mL and 0.15 ng/mL and 6.11 ng/mL and 48.38 ng/mL and 35.23 ng/mL, the AAI plasma concentration (medium-dose (30 mg/kg oral), 24 h, individual rats M204,M205,M206,F204,F205,F206, 30 mg/kg) was 0.23 ng/mL and 8.71 ng/mL and the AUC0→t [2] was 4703.09 ng·h/mL and 3783.95 ng·h/mL and 3228.59 ng·h/mL and 3983.95 ng·h/mL and 4581.00 ng·h/mL. For the same molecule, the CL/F [2] was 1.18 L/h and 0.80 L/h and 1.03 L/h and 1.79 L/h and 1.32 L/h and 1.20 L/h, the Cmax [2] was 2919.69 ng/mL and 1424.98 ng/mL and 2114.14 ng/mL and 2496.11 ng/mL and 2630.67 ng/mL and 3133.29 ng/mL and the Vd [2] was 5.23 L and 4.46 L and 4.94 L and 5.21 L (2×) and 2.97 L. For the same molecule, the t1/2 [2] was 3.85 h and 3.33 h and 2.02 h and 2.73 h and 1.71 h and 3.08 h, the tmax [2] was 1.00 h and the “fold increase in AUC0→t” value [3] was 4.3 fold. The “fold increase in Cmax” value [3] was 3.7 fold.
